Residue numbers refer to the chain shown, from its start. Active and inactive are the calls of the source. No cut-off for these calls is given here.
Assays:
[1] = test system: T1, Lysine-specific demethylase 4A (Homo sapiens), O75164 [F932A]; experiment: Binding affinity to thrombin cleavable N-terminal 6His tagged and 13C-IVLM labeled human KDM4A tandem TUDOR domain (897 to 1011 residues) F932A mutant expressed in Escherichia coli BL21(DE3)-T1R by ITC method
T1 sequence (whole entry): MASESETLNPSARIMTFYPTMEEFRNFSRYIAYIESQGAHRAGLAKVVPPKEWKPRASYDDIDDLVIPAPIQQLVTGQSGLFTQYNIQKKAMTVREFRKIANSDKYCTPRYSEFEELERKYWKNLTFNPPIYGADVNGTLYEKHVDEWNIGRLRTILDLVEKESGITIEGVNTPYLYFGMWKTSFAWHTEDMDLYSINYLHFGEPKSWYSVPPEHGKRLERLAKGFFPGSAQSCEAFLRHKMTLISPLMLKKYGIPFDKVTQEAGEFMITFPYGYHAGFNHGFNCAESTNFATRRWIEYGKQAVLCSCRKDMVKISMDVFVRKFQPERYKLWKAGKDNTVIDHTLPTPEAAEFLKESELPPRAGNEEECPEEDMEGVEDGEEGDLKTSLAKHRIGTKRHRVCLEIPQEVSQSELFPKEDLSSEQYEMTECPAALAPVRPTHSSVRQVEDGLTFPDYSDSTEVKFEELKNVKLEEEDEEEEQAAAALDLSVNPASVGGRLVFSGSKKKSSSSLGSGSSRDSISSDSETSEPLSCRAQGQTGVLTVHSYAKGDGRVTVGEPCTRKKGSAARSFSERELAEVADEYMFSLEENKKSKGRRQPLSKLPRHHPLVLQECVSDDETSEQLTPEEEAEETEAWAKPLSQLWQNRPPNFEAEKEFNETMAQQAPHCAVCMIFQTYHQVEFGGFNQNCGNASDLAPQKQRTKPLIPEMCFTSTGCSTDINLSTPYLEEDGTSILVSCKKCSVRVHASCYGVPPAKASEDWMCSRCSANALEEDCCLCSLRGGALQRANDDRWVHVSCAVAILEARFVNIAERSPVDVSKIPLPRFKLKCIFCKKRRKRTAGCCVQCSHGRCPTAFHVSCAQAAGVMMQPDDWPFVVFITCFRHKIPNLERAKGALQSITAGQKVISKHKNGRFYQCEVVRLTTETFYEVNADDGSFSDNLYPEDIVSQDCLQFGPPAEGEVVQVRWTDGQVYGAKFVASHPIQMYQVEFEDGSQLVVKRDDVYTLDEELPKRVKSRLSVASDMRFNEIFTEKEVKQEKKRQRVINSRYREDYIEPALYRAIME

[2] = test system: T2, Lysine-specific demethylase 4A (Homo sapiens), O75164 [Y973A]; experiment: Binding affinity to thrombin cleavable N-terminal 6His tagged and 13C-IVLM labeled human KDM4A tandem TUDOR domain (897 to 1011 residues) Y973A mutant expressed in Escherichia coli BL21(DE3)-T1R by ITC method
T2 sequence (whole entry): T1 sequence (whole entry) with A932F, Y973A

With `CN(C)C[C@H]1C2CCC(c3ccccc3)(C2)[C@H]1O` (some centres not stated) the Activity [1] was “inactive” and the Activity [2] was “inactive”.

Reference: ChEMBL document CHEMBL4190382, “Targeting lysine specific demethylase 4A (KDM4A) tandem TUDOR domain - A fragment based approach” (Bioorg Med Chem Lett, 2018)
